Experimental data as given in ChEMBL document CHEMBL4765254, “Design, synthesis and biological evaluation of 1-alkyl-5/6-(5-oxo-4,5-dihydro-1,2,4-oxadiazol-3-yl)-1H-indole-3-carbonitriles as novel xanthine oxidase inhibitors” (Eur J Med Chem, 2020).
Activity calls are given as the source filed them. The rule behind the calls is not given here.

Molecular target: T1, Xanthine dehydrogenase/oxidase (Bos taurus, UniProt P80457)
Experiment: Inhibition of bovine xanthine oxidase assessed as reduction in uric acid formation using xanthine as substrate preincubated for 25 mins followed by substrate addition measured at first 2 mins by spectrophotometric analysis
Conditions: not given

T1 sequence (P80457 whole entry): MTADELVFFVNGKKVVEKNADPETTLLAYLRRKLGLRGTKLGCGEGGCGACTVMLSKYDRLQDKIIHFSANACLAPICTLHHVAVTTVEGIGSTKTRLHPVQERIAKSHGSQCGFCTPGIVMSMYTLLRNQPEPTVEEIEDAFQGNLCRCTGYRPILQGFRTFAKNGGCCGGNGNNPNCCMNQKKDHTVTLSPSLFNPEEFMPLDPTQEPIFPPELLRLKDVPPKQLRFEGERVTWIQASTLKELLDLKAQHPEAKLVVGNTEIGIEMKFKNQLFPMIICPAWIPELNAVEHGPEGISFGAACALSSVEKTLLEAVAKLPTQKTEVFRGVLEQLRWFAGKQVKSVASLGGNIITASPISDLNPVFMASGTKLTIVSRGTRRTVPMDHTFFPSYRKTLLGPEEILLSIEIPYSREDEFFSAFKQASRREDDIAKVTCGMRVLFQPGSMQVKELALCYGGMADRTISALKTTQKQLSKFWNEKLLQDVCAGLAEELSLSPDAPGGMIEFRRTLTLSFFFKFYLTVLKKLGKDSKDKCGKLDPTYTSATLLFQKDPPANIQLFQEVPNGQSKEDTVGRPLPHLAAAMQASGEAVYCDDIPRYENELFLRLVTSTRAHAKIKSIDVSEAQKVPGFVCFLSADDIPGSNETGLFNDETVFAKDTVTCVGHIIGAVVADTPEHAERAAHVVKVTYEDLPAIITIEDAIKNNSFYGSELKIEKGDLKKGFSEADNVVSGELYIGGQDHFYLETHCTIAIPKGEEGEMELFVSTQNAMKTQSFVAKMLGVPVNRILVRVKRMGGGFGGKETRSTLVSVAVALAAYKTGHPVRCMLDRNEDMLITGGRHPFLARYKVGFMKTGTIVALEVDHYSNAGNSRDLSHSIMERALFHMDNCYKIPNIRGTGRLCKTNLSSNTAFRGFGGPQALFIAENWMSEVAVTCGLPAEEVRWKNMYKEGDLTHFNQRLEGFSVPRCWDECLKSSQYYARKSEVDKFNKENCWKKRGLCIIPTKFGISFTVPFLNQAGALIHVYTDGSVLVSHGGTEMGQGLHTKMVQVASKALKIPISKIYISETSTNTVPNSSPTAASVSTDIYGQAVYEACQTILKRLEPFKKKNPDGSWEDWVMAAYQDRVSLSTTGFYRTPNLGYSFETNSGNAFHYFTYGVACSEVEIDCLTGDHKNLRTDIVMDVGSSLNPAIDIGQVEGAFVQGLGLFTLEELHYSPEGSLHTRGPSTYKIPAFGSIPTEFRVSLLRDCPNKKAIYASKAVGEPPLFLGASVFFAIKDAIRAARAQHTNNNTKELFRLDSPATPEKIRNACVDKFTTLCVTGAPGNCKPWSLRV

Row | IC50 | Structure (SMILES)
1 | 1.84 µM | Cc1ccc(Cn2cc(C#N)c3ccc(-c4noc(=O)[nH]4)cc32)cc1
2 | 1.24 µM | CC(C)=CCn1cc(C#N)c2cc(-c3noc(=O)[nH]3)ccc21
3 | 1.02 µM | CC(C)CCn1cc(C#N)c2cc(-c3noc(=O)[nH]3)ccc21
4 | 1.14 µM | Cc1ccc(Cn2cc(C#N)c3cc(-c4noc(=O)[nH]4)ccc32)cc1
5 | 1.72 µM | N#Cc1cn(Cc2ccccc2)c2ccc(-c3noc(=O)[nH]3)cc12
6 | 2.07 µM | N#Cc1cn(Cc2ccc(Br)cc2)c2ccc(-c3noc(=O)[nH]3)cc12
7 | 3.6 µM | N#Cc1cn(Cc2cccc(F)c2)c2ccc(-c3noc(=O)[nH]3)cc12
8 | 1.7 µM | COc1cccc(Cn2cc(C#N)c3cc(-c4noc(=O)[nH]4)ccc32)c1
9 | 6.56 µM | CC(C)CCn1cc(C#N)c2ccc(-c3noc(=O)[nH]3)cc21
10 | 1.09 µM | CC(C)Cn1cc(C#N)c2cc(-c3noc(=O)[nH]3)ccc21
11 | 5.41 µM | Cn1cc(C#N)c2cc(-c3noc(=O)[nH]3)ccc21
12 | 0.82 µM | N#Cc1cn(C2CCCC2)c2cc(-c3noc(=O)[nH]3)ccc12
13 | 2.6 µM | N#Cc1cn(Cc2cccc(Br)c2)c2ccc(-c3noc(=O)[nH]3)cc12
14 | 1.71 µM | N#Cc1cn(Cc2ccc(F)cc2)c2ccc(-c3noc(=O)[nH]3)cc12

Continued, molecule first:

Row | Structure (SMILES) | IC50
15 | CC(C)n1cc(C#N)c2ccc(-c3noc(=O)[nH]3)cc21 | 1.8 µM
16 | N#Cc1cn(CC2CC2)c2ccc(-c3noc(=O)[nH]3)cc12 | 0.88 µM
17 | N#Cc1cn(Cc2ccc(Cl)cc2)c2ccc(-c3noc(=O)[nH]3)cc12 | 2.4 µM
18 | Cc1cccc(Cn2cc(C#N)c3cc(-c4noc(=O)[nH]4)ccc32)c1 | 2.16 µM
19 | CC(C)(C)c1ccc(Cn2cc(C#N)c3cc(-c4noc(=O)[nH]4)ccc32)cc1 | 1.44 µM
20 | N#Cc1cn(Cc2cccc(Cl)c2)c2ccc(-c3noc(=O)[nH]3)cc12 | 2.93 µM
21 | N#Cc1c[nH]c2ccc(-c3noc(=O)[nH]3)cc12 | 4.13 µM
22 | CC(C)n1cc(C#N)c2cc(-c3noc(=O)[nH]3)ccc21 | 0.41 µM
23 | N#Cc1cn(CC2CCCCC2)c2ccc(-c3noc(=O)[nH]3)cc12 | 2.86 µM
24 | COc1ccc(Cn2cc(C#N)c3cc(-c4noc(=O)[nH]4)ccc32)cc1 | 1.02 µM

Molecular target: T1, Xanthine dehydrogenase/oxidase
Experiment: Mixed type inhibition of bovine xanthine oxidase assessed as inhibitory constant using xanthine as substrate preincubated for 25 mins followed by substrate addition measured at first 2 mins by spectrophotometry based Lineweaver-Burk plot analysis
Conditions: not given

Row | Structure (SMILES) | Ki
25 | N#Cc1cn(C2CCCC2)c2ccc(-c3noc(=O)[nH]3)cc12 | 0.138 µM

Test system: Rattus norvegicus
Experiment: Hypouricemic activity in Sprague-Dawley rat model of Potassium oxonate-induced acute hyperuricemia assessed as decrease in serum uric acid level at 10 mg/kg, ig administered 1 hr after potassium oxonate treatment and measured after 3 hrs relative to control
Assay type: functional
Design: scale not given: the % may be the effect or the level left
Conditions: time 4 hrs

Row | Structure (SMILES) | Activity
26 | N#Cc1cn(C2CCCC2)c2ccc(-c3noc(=O)[nH]3)cc12 | 20.8%

Test system: Rattus norvegicus
Experiment: Hypouricemic activity in Sprague-Dawley rat model of Potassium oxonate-induced acute hyperuricemia assessed as percentage decrease in serum uric acid AUC (1 to 8 hrs) at 10 mg/kg, ig administered 1 hr after potassium oxonate treatment and measured after 8 hrs relative to control
Assay type: functional
Design: scale not given: the % may be the effect or the level left
Conditions: not given

Row | Structure (SMILES) | Activity
27 | N#Cc1cn(C2CCCC2)c2ccc(-c3noc(=O)[nH]3)cc12 | 12.8%

Test system: Rattus norvegicus
Experiment: Hypouricemic activity in Sprague-Dawley rat model of Potassium oxonate-induced acute hyperuricemia assessed as decrease in serum urate level at 10 mg/kg, ig administered 1 hr after potassium oxonate treatment and measured after 8 hrs
Assay type: functional, organism-based
Conditions: not given

Row | Structure (SMILES) | Activity
28 | N#Cc1cn(C2CCCC2)c2ccc(-c3noc(=O)[nH]3)cc12 | Active

Molecular target: T1, Xanthine dehydrogenase/oxidase
Experiment: Inhibition of bovine xanthine oxidase assessed as reduction in uric acid formation at 10 uM using xanthine as substrate preincubated for 25 mins followed by substrate addition measured at first 2 mins by spectrophotometric analysis relative to control
Conditions: cattle, time 27 min

Row | Structure (SMILES) | inhibition at 10 µM
29 | CC(C)n1ccc2cc(-c3noc(=O)[nH]3)ccc21 | < 50%
30 | O=c1[nH]c(-c2ccc3c(ccn3C3CCCC3)c2)no1 | < 50%
